Test results as given in patent US9458176B2, “Tetrahydroimidazo(1,5-D)[1,4]oxazepine derivative” (Eisai R&D Management Co., Ltd., priority 2013, dated 2016).
Marks after values point to notes of the source that are not given here.

Experiments:
[1] = biological target: human mGluR2 (Homo sapiens (Human), UniProt Q14416); assay: [35S]GTPγS binding assay (Affinity to mGluR2); type: biochemical; conditions: cell membrane fraction of HEK293 cells stably expressing human mGluR2; glutamic acid 10 μM
Summary of the method: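 Membranes from HEK293 cells stably co-expressing human mGluR2 and SLC1A3 (1.8–3 μg protein) preincubated with compound 30 min at RT, then stimulated with 10 μM glutamate 15 min; [35S]GTPγS (0.8 kBq) with WGA-SPA beads 1 h, buffer with 3 μM GDP, 100 mM NaCl, 1 mM MgCl2. IC50 from inhibition of glutamate-specific binding.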

[2] = test system: Long-Evans rats; assay: Novel Object Recognition (NOR) test in rats with scopolamine-induced cognitive impairment; type: in vivo, rat; conditions: male Long-Evans rats, scopolamine 0.3 mg/kg i.p.; statistically significant difference in discrimination index vs scopolamine alone group
Procedure: Six-week old male Long-Evans rats were used for this test. For 2 days before starting the test, the rats were acclimated to experimental operations such as administration and a test device (that is, a black or gray plastic cage with a width of 40 cm, a depth of 30 cm and a height of 45 cm). Each test compound was dissolved in a 0.1 N hydrochloric acid to be orally administered. Thirty minutes after the administration, scopolamine hydrobromide was intraperitoneally administered at a 0.3 mg/kg dose, so as to induce cognitive impairment. After another 30 minutes, each rat was acclimated in the test device for 3 minutes, and thereafter, two blocks in the same shape were put in the test device as acquisition trial, and exploring time for each block was measured for 5 minutes. Two hours after the acquisition trial, the rat was acclimated in the test device for 3 minutes, and thereafter, the same block as those used in the acquisition trial and a new block in a different shape were put in the cage for retention trial. The exploring time for each block was measured for 3 minutes, and a ratio of the exploring time for the newly used block to the sum of the exploring times for the respective blocks was calculated as a discrimination index. The thus obtained discrimination indexes were compared among a group of rats to which a medium alone was administered (medium group), a group of rats to which scopolamine alone was administered (scopolamine alone group) and a group of rats to which both the test compound and scopolamine were administered, so as to evaluate the action of the test compound on the novel object recognition function (cognitive function) of the rats.
Each discrimination index was shown as an average and a standard error. The statistical significance between the medium group and the scopolamine alone group was analyzed by the independent t-test. The statistical significance between the scopolamine alone group and each sample group was analyzed by one-way analysis of variance and then by Dunnett's multiple comparison test. The significance level was set to 5% on both sides. […] The analysis was carried out by using Prism 5 for Windows for Japanese, ver. 5.03.
A minimum effective dose at which a statistically significant difference was found between a group suffering from the cognitive impairment induced by scopolamine and a group treated with each compound is shown in Table 10.

Sequence of human mGluR2 (Q14416 19-872): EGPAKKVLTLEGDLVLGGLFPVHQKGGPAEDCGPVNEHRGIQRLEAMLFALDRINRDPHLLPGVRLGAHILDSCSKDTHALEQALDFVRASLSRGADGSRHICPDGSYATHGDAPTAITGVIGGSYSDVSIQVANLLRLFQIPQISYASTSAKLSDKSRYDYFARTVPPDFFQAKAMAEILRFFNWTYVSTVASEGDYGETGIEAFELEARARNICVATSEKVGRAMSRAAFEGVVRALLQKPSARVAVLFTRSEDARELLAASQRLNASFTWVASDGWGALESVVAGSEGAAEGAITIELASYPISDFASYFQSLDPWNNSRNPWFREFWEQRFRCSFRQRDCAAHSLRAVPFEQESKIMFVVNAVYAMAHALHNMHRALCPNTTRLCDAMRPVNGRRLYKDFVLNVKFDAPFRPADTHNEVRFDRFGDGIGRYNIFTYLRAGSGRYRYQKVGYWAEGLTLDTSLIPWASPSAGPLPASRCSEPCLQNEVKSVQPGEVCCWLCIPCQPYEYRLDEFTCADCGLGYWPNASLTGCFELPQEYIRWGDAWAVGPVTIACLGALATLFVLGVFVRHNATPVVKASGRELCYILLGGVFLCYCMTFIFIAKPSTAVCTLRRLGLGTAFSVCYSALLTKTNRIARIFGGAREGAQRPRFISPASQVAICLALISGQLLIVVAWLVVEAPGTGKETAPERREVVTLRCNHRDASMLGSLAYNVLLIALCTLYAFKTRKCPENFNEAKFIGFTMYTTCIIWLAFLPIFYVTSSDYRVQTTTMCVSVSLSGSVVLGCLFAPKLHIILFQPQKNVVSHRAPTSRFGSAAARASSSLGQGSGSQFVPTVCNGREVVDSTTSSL

| IC50 [1] | SMILES | Minimum effective dose [2] |
| --- | --- | --- |
| 10 nM | COc1cc(-c2nc(-c3cc(C)nc(C)c3)c3n2C[C@@H](C)OCC3)ccc1Cl [Example 1, (R)-3-(4-chloro-3-methoxyphenyl)-1-(2,6-dimethylpyridin-4-yl)-6-methyl-5,6,8,9-tetrahydroimidazo[1,5-d][1,4]oxazepine] | 3 mg/kg, p.o. |
| 4.2 nM | COc1cc(-c2nc(-c3cc(C)nc(C)c3)c3n2C[C@@H](C)OCC3)ccc1C(F)(F)F [Example 7, (R)-1-(2,6-dimethylpyridin-4-yl)-3-(3-methoxy-4-(trifluoromethyl)phenyl)-6-methyl-5,6,8,9-tetrahydroimidazo[1,5-d][1,4]oxazepine] | 0.3 mg/kg, p.o. |
| 11.4 nM | COc1cc(-c2nc(-c3cc(C)nc(C)c3)c3n2C[C@@H](CF)OCC3)ccc1Cl [Example 11, (S)-3-(4-chloro-3-methoxyphenyl)-1-(2,6-dimethylpyridin-4-yl)-6-fluoromethyl-5,6,8,9-tetrahydroimidazo[1,5-d][1,4]oxazepine] | >1* mg/kg, p.o. |
| 5.6 nM | Cc1cc(-c2nc(-c3ccc(OC(F)F)c(C)c3)n3c2CCO[C@H](C)C3)cc(C)n1 [Example 14, (R)-3-(4-(difluoromethoxy)-3-methylphenyl)-1-(2,6-dimethylpyridin-4-yl)-6-methyl-5,6,8,9-tetrahydroimidazo[1,5-d][1,4]oxazepine] | 1 mg/kg, p.o. |
| 4.8 nM | COc1cc(-c2nc(-c3ccnc(C)c3)c3n2C[C@@H](C)OCC3)ccc1OC(F)(F)F [Example 24, (R)-3-(3-methoxy-4-(trifluoromethoxy)phenyl)-6-methyl-1-(2-methylpyridin-4-yl)-5,6,8,9-tetrahydroimidazo[1,5-d][1,4]oxazepine] | 1 mg/kg, p.o. |
| 22.3 nM | COc1cc(-c2nc(-c3cc(C)nc(C)c3)c3n2CCOCC3)ccc1Cl [Example 44] | 1 mg/kg, p.o. |
| 22 nM | Cc1cc(-c2nc(-c3ccc(Cl)c(F)c3)n3c2CCO[C@H](C)C3)cc(CF)n1 [Example 87] | 3 mg/kg, p.o. |
